Reference: ChEMBL document CHEMBL1201862, “PubChem BioAssay data set” (2004)
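Interpolation was linear, between the two tested concentrations surrounding the appropriate level; five concentrations were tested over 48 hours in 96-well plates. GI50: concentration for 50% inhibition of growth.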 Active and inactive are the calls of the source. No stated cut-off is given here; in the data, active = GI50 up to about 1.1 µM and inactive = higher.

What was measured:
Experiment in all cases: NCI-60 cell line screen, 48 h
[1] = tested on: A498
[2] = tested on: A549
[3] = tested on: ACHN
[4] = tested on: CAKI-1
[5] = tested on: HL-60
[6] = tested on: IGROV-1
[7] = tested on: K562
[8] = tested on: LOX IMVI
[9] = tested on: MDA-MB-435
[10] = tested on: Malme-3M
[11] = tested on: NCI-H226
[12] = tested on: NCI-H522
[13] = tested on: RPMI-8226
[14] = tested on: SF-539
[15] = tested on: SK-MEL-28
[16] = tested on: SK-MEL-2
[17] = tested on: SK-MEL-5
[18] = tested on: SNB-19
[19] = tested on: U-251
[20] = tested on: UO-31

Measured: GI50

COC(=O)NCCc1n[nH]c2c1C(=O)C=C(N1CCOCC1)C2=O
inactive: [1] > 100 µM | [2] > 100 µM | [3] > 100 µM | [4] > 100 µM | [5] > 100 µM | [6] > 100 µM | [7] > 100 µM | [8] > 100 µM | [9] > 100 µM | [10] > 100 µM | [11] > 100 µM | [12] > 100 µM | [13] > 100 µM | [14] > 100 µM | [15] > 100 µM | [16] > 100 µM | [17] > 100 µM | [18] > 100 µM | [19] > 100 µM | [20] > 100 µM

Cc1ccc2nc3c(C)c(Cl)c(=O)cc-3sc2c1
inactive: [1] 40.2 µM | [2] 16.7 µM | [3] 18.5 µM | [4] 28.2 µM | [5] 2.59 µM | [6] 37.9 µM | [7] 3.65 µM | [8] 13.9 µM | [9] 18.5 µM | [10] > 45.7 µM | [11] 5.06 µM | [12] 11.1 µM | [13] 3.85 µM | [14] 13.1 µM | [15] 32.7 µM | [16] 17.2 µM | [17] 13.6 µM | [18] 24 µM | [19] 12.7 µM | [20] 10.2 µM
